Experiments:
Assay type in all cases: biochemical
[1] = tested on: mouse LYPLA1/2 (quantified together); assay: IC50 by gel-based competitive ABPP in vitro, mouse brain membrane proteome; conditions: mouse LYPLA1/2, in vitro; read-out: mLYPLA1/2 in vitro potency (IC50)
Description: Assay Overview: The purpose of this assay was to determine IC50 values of powder samples of test compounds for enzyme of interest activity, and anti-targets in a complex proteomic lysate using a gel-based competitive ABPP assay. In this assay, a complex proteome was incubated with test compound followed by reaction with FP-Rh and SDS-PAGE analysis as described above.
Protocol Summary: Soluble HeLa cell proteome (50 μL reaction volume, 1 mg/mL in DPBS) or mouse brain membrane proteome (50 μL reaction volume, 1 mg/mL in DPBS) was treated with varying concentrations of test compound (1 μL of a 50× stock in DMSO) for 30 minutes at 37° C. FP-Rh (1 μL of 50× stock in DMSO) was added to a final concentration of 2 μM. The reaction was incubated for 30 minutes at 25° C., quenched with 16 μL 4×SDS-PAGE loading buffer (reducing), separated by SDS-PAGE and visualized by in-gel fluorescent scanning. The percentage activity remaining was determined by measuring the integrated optical density of the enzymes of interest, and anti-target bands relative to a DMSO-only (no compound) control. IC50 values were determined from dose-response curves from three replicates at each inhibitor concentration: 1, 10, 100, 1000, 10000 nM and 0.01, 0.1, 1, 10, 100, 1000, 10000, 50000, and 100000 nM.

ABHD12 = target: T1, ABHD12 (Mus musculus, UniProt Q99LR1); assay: Gel-based competitive ABPP in vitro, mouse brain membrane proteome; conditions: mouse brain (mem) proteome
T1 construct: from tissue; host or cells: mouse brain, membrane fraction
T1 sequence (Q99LR1 1-398): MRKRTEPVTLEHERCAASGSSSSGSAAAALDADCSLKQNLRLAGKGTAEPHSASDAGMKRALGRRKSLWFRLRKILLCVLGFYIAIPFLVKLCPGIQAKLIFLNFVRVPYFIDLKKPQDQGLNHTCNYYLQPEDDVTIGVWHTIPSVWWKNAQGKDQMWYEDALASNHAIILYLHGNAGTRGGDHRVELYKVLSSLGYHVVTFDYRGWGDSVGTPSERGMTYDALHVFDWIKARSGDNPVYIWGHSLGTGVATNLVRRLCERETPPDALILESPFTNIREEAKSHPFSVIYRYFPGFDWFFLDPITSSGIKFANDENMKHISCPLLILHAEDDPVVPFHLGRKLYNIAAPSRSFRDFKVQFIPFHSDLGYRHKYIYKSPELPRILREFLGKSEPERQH
Description: (§1) Assay Overview: The purpose of this assay was to determine whether test compounds can inhibit LYPLA1 and LYPLA2 in a complex proteomic lysate and to assess anti-target inhibition using a competitive activity-based proteomic profiling (ABPP) assay. In this assay, a complex proteome endogenously expressing LYPLA1/2 was incubated with test compound followed by reaction with a rhodamine-conjugated fluorophosphonate (FP-Rh) serine-hydrolase specific activity-based probe. The reaction products were separated by SDS-PAGE and visualized in-gel using a flatbed fluorescence scanner. The percentage activity remaining was determined by measuring the integrated optical density of the bands. […] Percent inhibition was calculated relative to a DMSO (no compound) control.
(§2) Protocol Summary: Mouse brain membrane proteome (50 μL reaction volume, 1 mg/mL in DPBS) was treated with 0.1-100 μM test compound (1 μL of a 50× stock in DMSO) for 30 minutes at 37° C. FP-Rh (1 μL of 50× stock in DMSO, Thermo #88318) was added to a final concentration of 2 μM. The reactions were incubated for 30 minutes at 25° C., quenched with 16 μL 4×SDS-PAGE loading buffer (reducing), separated by SDS-PAGE and visualized by in-gel fluorescent scanning. The percentage activity remaining was determined by measuring the integrated optical density of the bands relative to a DMSO-only (no compound) control. Assay Cutoff: Compounds with ≥50% inhibition of targets at 1 μM test compound concentration were considered active.

ABHD3 = target: T2, ABHD3 (Mus musculus, UniProt Q91ZH7); assay: as above; conditions: mouse brain (mem) proteome
T2 construct: from tissue; host or cells: mouse brain, membrane fraction
T2 sequence (Q91ZH7 1-411): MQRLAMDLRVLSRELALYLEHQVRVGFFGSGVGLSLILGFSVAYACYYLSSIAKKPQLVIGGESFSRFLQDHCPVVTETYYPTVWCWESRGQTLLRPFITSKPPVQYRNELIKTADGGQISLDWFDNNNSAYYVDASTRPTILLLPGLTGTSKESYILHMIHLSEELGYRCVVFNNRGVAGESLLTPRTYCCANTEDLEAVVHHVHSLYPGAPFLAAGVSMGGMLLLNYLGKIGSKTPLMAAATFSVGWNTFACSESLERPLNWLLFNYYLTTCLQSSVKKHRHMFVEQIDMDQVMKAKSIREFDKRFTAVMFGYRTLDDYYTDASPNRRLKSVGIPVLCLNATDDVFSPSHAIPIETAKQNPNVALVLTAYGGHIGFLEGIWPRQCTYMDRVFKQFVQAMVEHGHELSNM
Description: as §1, §2

PLA2G7 = target: T3, PLA2G7 (Mus musculus, UniProt Q60963); assay: as above; conditions: mouse brain (mem) proteome
T3 construct: from tissue; host or cells: mouse brain, membrane fraction
T3 sequence (Q60963 22-440): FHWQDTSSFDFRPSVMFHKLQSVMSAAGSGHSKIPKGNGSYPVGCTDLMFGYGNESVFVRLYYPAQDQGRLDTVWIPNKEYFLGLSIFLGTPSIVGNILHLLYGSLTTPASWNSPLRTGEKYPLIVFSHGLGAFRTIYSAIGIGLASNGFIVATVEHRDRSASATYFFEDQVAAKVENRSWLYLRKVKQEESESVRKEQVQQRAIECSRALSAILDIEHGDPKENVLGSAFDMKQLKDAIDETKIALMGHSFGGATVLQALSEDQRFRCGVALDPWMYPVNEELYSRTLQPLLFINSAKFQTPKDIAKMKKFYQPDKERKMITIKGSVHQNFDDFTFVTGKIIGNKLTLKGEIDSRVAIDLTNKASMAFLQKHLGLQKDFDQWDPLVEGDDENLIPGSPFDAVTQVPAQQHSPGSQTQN
Description: as §1, §2

Compound | IC50 [1] [nM] | ABHD12 in vitro enzyme activity, % @ 10 μM (ABHD12) [% @] | ABHD3 in vitro enzyme activity, % @ 10 μM (ABHD3) [% @] | PLA2G7 in vitro enzyme activity, % @ 1 μM (PLA2G7; 1 μM) [% @] | PLA2G7 in vitro enzyme activity, % @ 10 μM (PLA2G7) [% @]
COc1ccc(N2CCN(C(=O)ON3C(=O)[C@@H]4CN(CC5CCN(Cc6ccccc6)CC5)CCN4C3=O)CC2)cc1 [Compound 42, (S)-7-((1-benzylpiperidin-4-yl)methyl)-1,3-dioxo-hexahydroimidazo[1,5-a]pyrazin-2(3H)-yl 4-(4-methoxyphenyl)piperazine-1-carboxylate] | 29300 | 0 | 0 | 100 | 
O=C(ON1C(=O)[C@@H]2CN(C(=O)N3CCOCC3)CCN2C1=O)N1CCC(CCc2ccc(Cl)cc2)CC1 [Compound 50, (S)-7-(morpholine-4-carbonyl)-1,3-dioxohexahydroimidazo[1,5-a]pyrazin-2(3H)-yl 4-(4-chloro-phenethyl)piperidine-1-carboxylate] | 117 | 0 | 0 |  | 100
O=C(ON1C(=O)[C@H]2CN(C(=O)N3CCOCC3)CCN2C1=O)N1CCC(CCc2ccc(Cl)cc2)CC1 [Compound 51, (R)-7-(morpholine-4-carbonyl)-1,3-dioxohexahydroimidazo[1,5-a]pyrazin-2(3H)-yl 4-(4-chloro-phenethyl)piperidine-1-carboxylate] | 97 | 0 | 0 |  | 100

From patent US9981972B2, “N-hydroxy bicyclic hydantoin carbamates as tools for identification of serine hydrolase targets” (ABIDE THERAPEUTICS, INC., priority 2014, dated 2018)
